# Target: MASP-2 CCP2-SP (Homo sapiens (Human), UniProt O00187)
# Test: MASP-2 co-crystallization, X-ray crystallography and structure analysis (H-bonds, van der Waals contacts);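 on Ligand-pharmacophore element distance, pharmacophore element C2: distance from averaged pharmacophore element to bound ligand; missing value means element absent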;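 on Ligand-pharmacophore element distance, pharmacophore element C3: distance from averaged pharmacophore element to bound ligand; missing value means element absent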;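 on Ligand-pharmacophore element distance, pharmacophore element C4: distance from averaged pharmacophore element to bound ligand; missing value means element absent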;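 on Ligand-pharmacophore element distance, pharmacophore element C5: distance from averaged pharmacophore element to bound ligand; missing value means element absent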
# Set-up: van der Waals contact distance, MASP-2 HIS 483 atom CD2 / van der Waals contact distance, MASP-2 HIS 483 atom NE2 / van der Waals contact distance, SER 654 C to compound atom / van der Waals contact distance, SER 654 O to compound atom / van der Waals contact distance, TRP 655 C to compound atom / van der Waals contact distance, MASP-2 GLY 528 atom CA / van der Waals contact distance TRP 655 atom CZ3 / van der Waals contact distance TRP 655 atom N / van der Waals contact distance TRP 655 atom CE3 / van der Waals contact distance GLY 656 atom C / van der Waals contact distance GLY 656 atom CA / van der Waals contact distance GLY 656 atom O / van der Waals contact distance, MASP-2 TYR 607 atom CD1 / van der Waals contact distance, MASP-2 PRO 606 atom O / d(C3,CA1) / d(CA1,N1)2 / d(H4,O1) / d(H4,O2) / d(O1,O2) / d(CA1,O2) / d(CA6,O1) / d(CA6,O2) / d(CA1,C5) / d(O2,H3) / d(N2,C2) / d(CA5,N2) / d(N2,C4) / d(N2,C6) / d(N2,CA3) / d(N2,O3) / d(O4,H2): unit not given beside the values
# Settings: Table A4-1; element C2
# Method in brief: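 Soaked crystals of recombinant CCP2-SP (E. coli) yield the structures, phased by molecular replacement on 1Q3X pieces. Hydrophobic or nonbonded contacts can also cover atom pairs that are potential hydrogen bonds.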
# Sequence of MASP-2 CCP2-SP (O00187 445-686): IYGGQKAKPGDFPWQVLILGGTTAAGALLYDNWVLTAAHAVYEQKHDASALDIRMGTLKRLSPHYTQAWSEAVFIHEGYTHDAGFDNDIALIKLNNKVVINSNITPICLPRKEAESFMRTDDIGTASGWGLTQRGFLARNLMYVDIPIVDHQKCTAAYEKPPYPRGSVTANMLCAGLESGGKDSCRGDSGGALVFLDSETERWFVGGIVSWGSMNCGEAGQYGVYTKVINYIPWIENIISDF
# Sequence of MASP-2 CCP2-SP (O00187 364-432 partner): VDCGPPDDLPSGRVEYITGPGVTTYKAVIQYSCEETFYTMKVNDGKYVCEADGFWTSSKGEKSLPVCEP
row,SMILES,"Ligand-pharmacophore element distance, pharmacophore element C2"
1,Cc1nc(N)ccc1CNC(=O)C(C)NC(=O)C1CC(c2cccc3ccccc23)CCN1.Cl.Cl (centres unmarked) [1297_6],0.33
2,C[C@H](NC(=O)[C@H]1C[C@H](Cc2ccccc2)CN1)C(=O)NCc1ccc(C(=N)N)cc1.Cl.Cl [1306_1],0

# Same assay, conditions: Table A4-1; element C3
row,SMILES,"Ligand-pharmacophore element distance, pharmacophore element C3"
1,Cc1nc(N)ccc1CNC(=O)C(C)NC(=O)C1CC(c2cccc3ccccc23)CCN1.Cl.Cl (centres unmarked) [1297_6],0.4
2,C[C@H](NC(=O)[C@H]1C[C@H](Cc2ccccc2)CN1)C(=O)NCc1ccc(C(=N)N)cc1.Cl.Cl [1306_1],0

# Same assay, conditions: Table A4-1; element C4
row,SMILES,"Ligand-pharmacophore element distance, pharmacophore element C4"
1,Cc1nc(N)ccc1CNC(=O)C(C)NC(=O)C1CC(c2cccc3ccccc23)CCN1.Cl.Cl (centres unmarked) [1297_6],0
2,C[C@H](NC(=O)[C@H]1C[C@H](Cc2ccccc2)CN1)C(=O)NCc1ccc(C(=N)N)cc1.Cl.Cl [1306_1],0

# Same assay, conditions: Table A4-1; element C5
row,SMILES,"Ligand-pharmacophore element distance, pharmacophore element C5"
1,Cc1nc(N)ccc1CNC(=O)C(C)NC(=O)C1CC(c2cccc3ccccc23)CCN1.Cl.Cl (centres unmarked) [1297_6],0
2,C[C@H](NC(=O)[C@H]1C[C@H](Cc2ccccc2)CN1)C(=O)NCc1ccc(C(=N)N)cc1.Cl.Cl [1306_1],0

# Same assay, conditions: Table A4-1; element C6
row,SMILES,"Ligand-pharmacophore element distance, pharmacophore element C6"
1,Cc1nc(N)ccc1CNC(=O)C(C)NC(=O)C1CC(c2cccc3ccccc23)CCN1.Cl.Cl (centres unmarked) [1297_6],0
2,C[C@H](NC(=O)[C@H]1C[C@H](Cc2ccccc2)CN1)C(=O)NCc1ccc(C(=N)N)cc1.Cl.Cl [1306_1],0

# Same assay, conditions: Table A4-1; element C7
row,SMILES,"Ligand-pharmacophore element distance, pharmacophore element C7"
1,Cc1nc(N)ccc1CNC(=O)C(C)NC(=O)C1CC(c2cccc3ccccc23)CCN1.Cl.Cl (centres unmarked) [1297_6],0
2,C[C@H](NC(=O)[C@H]1C[C@H](Cc2ccccc2)CN1)C(=O)NCc1ccc(C(=N)N)cc1.Cl.Cl [1306_1],0

# Same assay, conditions: Table A4-1; element CA1
row,SMILES,"Ligand-pharmacophore element distance, pharmacophore element CA1"
1,Cc1nc(N)ccc1CNC(=O)C(C)NC(=O)C1CC(c2cccc3ccccc23)CCN1.Cl.Cl (centres unmarked) [1297_6],0.36
2,C[C@H](NC(=O)[C@H]1C[C@H](Cc2ccccc2)CN1)C(=O)NCc1ccc(C(=N)N)cc1.Cl.Cl [1306_1],0.05

# Same assay, conditions: Table A4-1; element CA2
row,SMILES,"Ligand-pharmacophore element distance, pharmacophore element CA2"
1,Cc1nc(N)ccc1CNC(=O)C(C)NC(=O)C1CC(c2cccc3ccccc23)CCN1.Cl.Cl (centres unmarked) [1297_6],0.24
2,C[C@H](NC(=O)[C@H]1C[C@H](Cc2ccccc2)CN1)C(=O)NCc1ccc(C(=N)N)cc1.Cl.Cl [1306_1],0.6

# Same assay, conditions: Table A4-1; element CA3
row,SMILES,"Ligand-pharmacophore element distance, pharmacophore element CA3"
1,Cc1nc(N)ccc1CNC(=O)C(C)NC(=O)C1CC(c2cccc3ccccc23)CCN1.Cl.Cl (centres unmarked) [1297_6],0
2,C[C@H](NC(=O)[C@H]1C[C@H](Cc2ccccc2)CN1)C(=O)NCc1ccc(C(=N)N)cc1.Cl.Cl [1306_1],0

# Same assay, conditions: Table A4-1; element CA4
row,SMILES,"Ligand-pharmacophore element distance, pharmacophore element CA4"
1,Cc1nc(N)ccc1CNC(=O)C(C)NC(=O)C1CC(c2cccc3ccccc23)CCN1.Cl.Cl (centres unmarked) [1297_6],1.14
2,C[C@H](NC(=O)[C@H]1C[C@H](Cc2ccccc2)CN1)C(=O)NCc1ccc(C(=N)N)cc1.Cl.Cl [1306_1],0

# Same assay, conditions: Table A4-1; element CA5
row,SMILES,"Ligand-pharmacophore element distance, pharmacophore element CA5"
1,Cc1nc(N)ccc1CNC(=O)C(C)NC(=O)C1CC(c2cccc3ccccc23)CCN1.Cl.Cl (centres unmarked) [1297_6],0
2,C[C@H](NC(=O)[C@H]1C[C@H](Cc2ccccc2)CN1)C(=O)NCc1ccc(C(=N)N)cc1.Cl.Cl [1306_1],0

# Same assay, conditions: Table A4-1; element CA6
row,SMILES,"Ligand-pharmacophore element distance, pharmacophore element CA6"
1,Cc1nc(N)ccc1CNC(=O)C(C)NC(=O)C1CC(c2cccc3ccccc23)CCN1.Cl.Cl (centres unmarked) [1297_6],0
2,C[C@H](NC(=O)[C@H]1C[C@H](Cc2ccccc2)CN1)C(=O)NCc1ccc(C(=N)N)cc1.Cl.Cl [1306_1],0

# Same assay, conditions: Table A5-1 pharmacophore: distance between elements, S2/S1 region
SMILES,"d(C3,CA1)","d(CA1,N1)2","d(CA1,O1)","d(CA1,O2)","d(H4,O1)","d(H4,O2)","d(O1,O2)","d(CA1,N1)"
Cc1nc(N)ccc1CNC(=O)C(C)NC(=O)C1CC(c2cccc3ccccc23)CCN1.Cl.Cl (centres unmarked) [1297_6],2.86,1.38,4.73,4.23,4.65,4.26,3.53,–
C[C@H](NC(=O)[C@H]1C[C@H](Cc2ccccc2)CN1)C(=O)NCc1ccc(C(=N)N)cc1.Cl.Cl [1306_1],–,–,4.38,4.22,4.25,5.09,3.06,3.54

# Same assay, conditions: Table A5-2 pharmacophore distance, S3/S4 region
SMILES,"d(N2,C2)","d(N2,CA2)","d(O2,H3)","d(O2,N2)"
Cc1nc(N)ccc1CNC(=O)C(C)NC(=O)C1CC(c2cccc3ccccc23)CCN1.Cl.Cl (centres unmarked) [1297_6],1.44,5.72,4.15,2.83
C[C@H](NC(=O)[C@H]1C[C@H](Cc2ccccc2)CN1)C(=O)NCc1ccc(C(=N)N)cc1.Cl.Cl [1306_1],–,6.06,5.26,2.66

# Same assay, conditions: Table A6-1 pharmacophore angle
SMILES,"a(C3, CA1, O1)","a(CA1, O1, O2)","a(O1, O2, H4)"
Cc1nc(N)ccc1CNC(=O)C(C)NC(=O)C1CC(c2cccc3ccccc23)CCN1.Cl.Cl (centres unmarked) [1297_6],150.35,105.49,133.61
C[C@H](NC(=O)[C@H]1C[C@H](Cc2ccccc2)CN1)C(=O)NCc1ccc(C(=N)N)cc1.Cl.Cl [1306_1],–,107.94,143.05

# Same assay, conditions: Table A6-1 pharmacophore angle; Methyl-amino-pyridine compounds
row,SMILES,"a(N1, CA1, O1) b)"
1,Cc1nc(N)ccc1CNC(=O)C(C)NC(=O)C1CC(c2cccc3ccccc23)CCN1.Cl.Cl (centres unmarked) [1297_6],173.49

# Same assay, conditions: Table A6-1 pharmacophore angle; all compounds with protonatable center N1 except Methyl-amino-pyridine
row,SMILES,"A(N1, CA1, O1) a)"
1,C[C@H](NC(=O)[C@H]1C[C@H](Cc2ccccc2)CN1)C(=O)NCc1ccc(C(=N)N)cc1.Cl.Cl [1306_1],158.44

# Same assay, conditions: Table A6-2 pharmacophore angle
SMILES,"a(O1, O2, H3)","a(O1, O2, N2)","a(O2, N2, C2)","a(O2, N2, CA2)"
Cc1nc(N)ccc1CNC(=O)C(C)NC(=O)C1CC(c2cccc3ccccc23)CCN1.Cl.Cl (centres unmarked) [1297_6],144.79,141.32,116.76,154.05
C[C@H](NC(=O)[C@H]1C[C@H](Cc2ccccc2)CN1)C(=O)NCc1ccc(C(=N)N)cc1.Cl.Cl [1306_1],152.11,135.46,–,155.89

# Same assay, conditions: Table A7-1; between pharmacophore elements of the bound compound
SMILES,"Pharmacophore torsion angle a(C3, CA1, O1, H4)","Pharmacophore torsion angle a(H4, O1, O2, H3)","Pharmacophore torsion angle a(H4, O1, O2, N2)","Pharmacophore torsion angle a(N1, CA1, O1, H4)","Pharmacophore torsion angle a(O1, H4, O2, CA1)","Pharmacophore torsion angle a(O1, O2, N2, C2)","Pharmacophore torsion angle a(N1, CA1, O2, H4)"
Cc1nc(N)ccc1CNC(=O)C(C)NC(=O)C1CC(c2cccc3ccccc23)CCN1.Cl.Cl (centres unmarked) [1297_6],27.46,43.22,150.19,5.20,−89.84,132.97,–
C[C@H](NC(=O)[C@H]1C[C@H](Cc2ccccc2)CN1)C(=O)NCc1ccc(C(=N)N)cc1.Cl.Cl [1306_1],–,36.21,120.80,–,−170.32,–,106.51

# Same assay, conditions: Table A7-2; between pharmacophore elements of the bound compound
SMILES,"Pharmacophore torsion angle a(O1, O2, N2, CA2)","Pharmacophore torsion angle a(O1, O2, N2, CA4)"
Cc1nc(N)ccc1CNC(=O)C(C)NC(=O)C1CC(c2cccc3ccccc23)CCN1.Cl.Cl (centres unmarked) [1297_6],131.04,109.63
C[C@H](NC(=O)[C@H]1C[C@H](Cc2ccccc2)CN1)C(=O)NCc1ccc(C(=N)N)cc1.Cl.Cl [1306_1],136.58,–
